The record followed here is patent US10640506B2, “Cyclobutyl substituted pyrrolopyridine and pyrrolopyrimidines derivatives as JAK inhibitors” (Incyte Corporation, priority 2010, dated 2020).

The target in assay [1] is human JAK1 (a.a. 837-1142) (Homo sapiens, UniProt P23458). The assay is described as follows: In vitro JAK kinase assay (HTRF, phosphorylation of biotinylated peptide), JAK1. In kind it is biochemical. The settings on record: Table F; 1 mM ATP. In short, it runs like this:
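Phosphorylation of a biotinylated peptide was run at room temperature for 1 hour using the N-terminally His-tagged JAK1 kinase domain (837-1142) from insect cells. After an EDTA stop, Eu-Py20 and SA-APC gave an HTRF read; values are binned potency ranges.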
Background: In TR-FRET formats the signal depends on donor and acceptor labels being close together.

In the next assay the target is T1, JAK2 (a.a. 828-1132) (Homo sapiens, UniProt O60674).
T1 construct: JAK2 (a.a. 828-1132); His tag (N)
The assay is described as follows: In vitro JAK kinase assay (HTRF, phosphorylation of biotinylated peptide), JAK2. In kind it is biochemical. Conditions: Table F; 1 mM ATP. In short, it runs like this:
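HTRF detection (Eu-Py20, SA-APC, 40 min) of biotinylated-peptide phosphorylation, following a 1 hour room-temperature reaction quenched with 45 mM EDTA. Enzymes: insect-cell-expressed N-terminal His-tagged JAK1 (837-1142) and JAK2 (828-1132) catalytic domains. Activities reported in ranged categories.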

T1 sequence (O60674 828-1132): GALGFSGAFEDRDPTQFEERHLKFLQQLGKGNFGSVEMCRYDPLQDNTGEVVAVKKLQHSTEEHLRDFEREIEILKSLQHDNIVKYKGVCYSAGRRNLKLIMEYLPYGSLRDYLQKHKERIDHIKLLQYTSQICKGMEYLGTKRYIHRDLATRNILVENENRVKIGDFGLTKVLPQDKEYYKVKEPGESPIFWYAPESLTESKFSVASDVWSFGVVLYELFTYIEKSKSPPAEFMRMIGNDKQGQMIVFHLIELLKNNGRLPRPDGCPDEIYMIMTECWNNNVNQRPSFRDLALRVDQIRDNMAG
Sequence of human JAK1 (a.a. 837-1142) (P23458 849-1154): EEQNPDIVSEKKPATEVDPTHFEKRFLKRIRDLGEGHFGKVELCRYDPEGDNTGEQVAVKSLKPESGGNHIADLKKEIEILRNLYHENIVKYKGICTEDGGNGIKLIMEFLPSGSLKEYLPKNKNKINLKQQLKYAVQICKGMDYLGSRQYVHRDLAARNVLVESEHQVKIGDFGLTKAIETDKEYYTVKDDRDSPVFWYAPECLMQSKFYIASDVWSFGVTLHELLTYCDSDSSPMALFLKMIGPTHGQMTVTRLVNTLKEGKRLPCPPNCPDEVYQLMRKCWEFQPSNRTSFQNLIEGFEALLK

Regarding `CCNCc1cc(OC2CCN([C@H]3C[C@](CC#N)(n4cc(-c5ncnc6[nH]ccc56)cn4)C3)CC2)nc(C(F)(F)F)n1` [Example 143, {trans-3-(4-{[6-[(ethylamino)methyl]-2-(trifluoromethyl)pyrimidin-4-yl]oxy}piperidin-1-yl)-1-[4-(7H-pyrrolo[2,3-d]pyrimidin-4-yl)-1H-pyrazol-1-yl]cyclobutyl}acetonitrile], the IC50 (commonly the point on the concentration scale where inhibition reaches its midpoint) lay in the range of 10 to 25 nM in assay [1] and 25 to 100 nM at JAK2 (a.a. 828-1132).

Regarding `N#CC[C@]1(n2cc(-c3ncnc4[nH]ccc34)cn2)C[C@H](N2CCC(Oc3cc(CN4CC(O)C4)nc(C(F)(F)F)n3)CC2)C1` [Example 144, {trans-3-(4-{[6-[(3-hydroxyazetidin-1-yl)methyl]-2-(trifluoromethyl)pyrimidin-4-yl]oxy}piperidin-1-yl)-1-[4-(7H-pyrrolo[2,3-d]pyrimidin-4-yl)-1H-pyrazol-1-yl]cyclobutyl}acetonitrile], the IC50 is 10 to 25 nM in assay [1] and > 100 nM against JAK2 (a.a. 828-1132).

With `Cc1cc(OC2CCN([C@H]3C[C@](CC#N)(n4cc(-c5ncnc6[nH]ccc56)cn4)C3)CC2)nc(C(F)(F)F)n1` [Example 145, {trans-3-(4-{[6-methyl-2-(trifluoromethyl)pyrimidin-4-yl]oxy}piperidin-1-yl)-1-[4-(7H-pyrrolo[2,3-d]pyrimidin-4-yl)-1H-pyrazol-1-yl]cyclobutyl}acetonitrile], the values for the IC50 (in assay [1]; against JAK2 (a.a. 828-1132)) were 10 to 25 nM and > 100 nM, respectively.

Consider `N#CC[C@]1(n2cc(-c3ncnc4[nH]ccc34)cn2)C[C@H](N2CCC(Oc3cc(CO)nc(C(F)(F)F)n3)CC2)C1` [Example 146, {trans-3-(4-{[6-(hydroxymethyl)-2-(trifluoromethyl)pyrimidin-4-yl]oxy}piperidin-1-yl)-1-[4-(7H-pyrrolo[2,3-d]pyrimidin-4-yl)-1H-pyrazol-1-yl]cyclobutyl}acetonitrile], for which the IC50 in assay [1] is 10 to 25 nM; at JAK2 (a.a. 828-1132), > 100 nM.

As to `N#CC[C@]1(n2cc(-c3ncnc4[nH]ccc34)cn2)C[C@H](N2CCC(Oc3cc(CN)nc(C(F)(F)F)n3)CC2)C1` [Example 147, {trans-3-(4-{[6-(aminomethyl)-2-(trifluoromethyl)pyrimidin-4-yl]oxy}piperidin-1-yl)-1-[4-(7H-pyrrolo[2,3-d]pyrimidin-4-yl)-1H-pyrazol-1-yl]cyclobutyl}acetonitrile], the IC50 in assay [1] lay within 10 to 25 nM; against JAK2 (a.a. 828-1132), 25 to 100 nM.

For `N#CC[C@]1(n2cc(-c3ncnc4[nH]ccc34)cn2)C[C@H](N2CCC(Oc3cc(CN4CCCC4)nc(C(F)(F)F)n3)CC2)C1` [Example 148, {trans-3-(4-{[6-(pyrrolidin-1-ylmethyl)-2-(trifluoromethyl)pyrimidin-4-yl]oxy}piperidin-1-yl)-1-[4-(7H-pyrrolo[2,3-d]pyrimidin-4-yl)-1H-pyrazol-1-yl]cyclobutyl}acetonitrile], the IC50 was 10 to 25 nM in assay [1] and > 100 nM at JAK2 (a.a. 828-1132).

`N#CC[C@]1(n2cc(-c3ncnc4[nH]ccc34)cn2)C[C@H](N2CCC(Oc3cc(CN4CCOCC4)nc(C(F)(F)F)n3)CC2)C1` [Example 149, {trans-3-(4-{[6-(morpholin-4-ylmethyl)-2-(trifluoromethyl)pyrimidin-4-yl]oxy}piperidin-1-yl)-1-[4-(7H-pyrrolo[2,3-d]pyrimidin-4-yl)-1H-pyrazol-1-yl]cyclobutyl}acetonitrile]: the IC50 is 25 to 100 nM in assay [1] and > 100 nM on JAK2 (a.a. 828-1132).

Regarding `N#CC[C@]1(n2cc(-c3ncnc4[nH]ccc34)cn2)C[C@H](N2CCC(Oc3cc(CN4CCC4)nc(C(F)(F)F)n3)CC2)C1` [Example 150, {cis-3-(4-{[6-(azetidin-1-ylmethyl)-2-(trifluoromethyl)pyrimidin-4-yl]oxy}piperidin-1-yl)-1-[4-(7H-pyrrolo[2,3-d]pyrimidin-4-yl)-1H-pyrazol-1-yl]cyclobutyl}acetonitrile], the IC50 in assay [1] was 10 to 25 nM; at JAK2 (a.a. 828-1132) it was > 100 nM.

For `Cc1cc(OC2CCN([C@H]3C[C@@](CC#N)(n4cc(-c5ncnc6[nH]ccc56)cn4)C3)CC2)nc(C(F)(F)F)c1` [Example 151, {trans-3-(4-{[4-methyl-6-(trifluoromethyl)pyridin-2-yl]oxy}piperidin-1-yl)-1-[4-(7H-pyrrolo[2,3-d]pyrimidin-4-yl)-1H-pyrazol-1-yl]cyclobutyl}acetonitrile], the concentration for half-maximal inhibition (IC50) in assay [1] is < 10 nM; at JAK2 (a.a. 828-1132) it was 25 to 100 nM.

For the molecule `N#CC[C@]1(n2cc(-c3ncnc4[nH]ccc34)cn2)C[C@H](N2CCN(C(=O)NC(C(F)(F)F)C(F)(F)F)CC2)C1` [Example 152, 4-{trans-3-(Cyanomethyl)-3-[4-(7H-pyrrolo[2,3-d]pyrimidin-4-yl)-1H-pyrazol-1-yl]cyclobutyl}-N-[2,2,2-trifluoro-1-(trifluoromethyl)ethyl]piperazine-1-carboxamide], the IC50 was < 10 nM in assay [1] and > 100 nM at JAK2 (a.a. 828-1132).

In the case of `CC(C)(CO)NCc1cc(OC2CCN([C@H]3C[C@](CC#N)(n4cc(-c5ncnc6[nH]ccc56)cn4)C3)CC2)nc(C(F)(F)F)c1` [Example 153, {trans-3-(4-{[4-{[(2-hydroxy-1,1-dimethylethyl)amino]methyl}-6-(trifluoromethyl)pyridin-2-yl]oxy}piperidin-1-yl)-1-[4-(7H-pyrrolo[2,3-d]pyrimidin-4-yl)-1H-pyrazol-1-yl]cyclobutyl}acetonitrile], the results for the IC50 (in assay [1]; against JAK2 (a.a. 828-1132)) were < 10 nM and 25 to 100 nM, respectively.

On to `N#CC[C@]1(n2cc(-c3ncnc4[nH]ccc34)cn2)C[C@H](N2CCC(Oc3cc(CNCCO)cc(C(F)(F)F)n3)CC2)C1` [Example 154, {trans-3-(4-{[4-{[(2-hydroxyethyl)amino]methyl}-6-(trifluoromethyl)pyridin-2-yl]oxy}piperidin-1-yl)-1-[4-(7H-pyrrolo[2,3-d]pyrimidin-4-yl)-1H-pyrazol-1-yl]cyclobutyl}acetonitrile], for which the IC50 in assay [1] is < 10 nM; against JAK2 (a.a. 828-1132), 25 to 100 nM.

On to `N#CC[C@]1(n2cc(-c3ncnc4[nH]ccc34)cn2)C[C@H](N2CCC(Oc3cc(CNCCCO)cc(C(F)(F)F)n3)CC2)C1` [Example 155, {trans-3-(4-{[4-{[(3-hydroxypropyl)amino]methyl}-6-(trifluoromethyl)pyridin-2-yl]oxy}piperidin-1-yl)-1-[4-(7H-pyrrolo[2,3-d]pyrimidin-4-yl)-1H-pyrazol-1-yl]cyclobutyl}acetonitrile], for which the values for the IC50 (in assay [1]; on JAK2 (a.a. 828-1132)) were < 10 nM and 25 to 100 nM, respectively.

Consider `N#CC[C@]1(n2cc(-c3ncnc4[nH]ccc34)cn2)C[C@H](N2CCC(Oc3cc(CN4CCC4)cc(C(F)(F)F)n3)CC2)C1` [Example 156, {trans-3-(4-{[4-(azetidin-1-ylmethyl)-6-(trifluoromethyl)pyridin-2-yl]oxy}piperidin-1-yl)-1-[4-(7H-pyrrolo[2,3-d]pyrimidin-4-yl)-1H-pyrazol-1-yl]cyclobutyl}acetonitrile], for which the IC50 in assay [1] was < 10 nM; against JAK2 (a.a. 828-1132), 25 to 100 nM.

With `N#CC[C@]1(n2cc(-c3ncnc4[nH]ccc34)cn2)C[C@H](N2CCC(Oc3cc(CN4CC(O)C4)cc(C(F)(F)F)n3)CC2)C1` [Example 157, {trans-3-(4-{[4-[(3-hydroxyazetidin-1-yl)methyl]-6-(trifluoromethyl)pyridin-2-yl]oxy}piperidin-1-yl)-1-[4-(7H-pyrrolo[2,3-d]pyrimidin-4-yl)-1H-pyrazol-1-yl]cyclobutyl}acetonitrile], the results for the IC50 (in assay [1]; on JAK2 (a.a. 828-1132)) were < 10 nM and 25 to 100 nM, respectively.

As for `N#CC[C@]1(n2cc(-c3ncnc4[nH]ccc34)cn2)C[C@H](N2CCC(Oc3cc(CN4CCCC4)cc(C(F)(F)F)n3)CC2)C1` [Example 158, {trans-3-(4-{[4-(pyrrolidin-1-ylmethyl)-6-(trifluoromethyl)pyridin-2-yl]oxy}piperidin-1-yl)-1-[4-(7H-pyrrolo[2,3-d]pyrimidin-4-yl)-1H-pyrazol-1-yl]cyclobutyl}acetonitrile], the IC50 in assay [1] was < 10 nM; against JAK2 (a.a. 828-1132), 25 to 100 nM.

As for `N#CC[C@]1(n2cc(-c3ncnc4[nH]ccc34)cn2)C[C@H](N2CCC(Oc3cc(CN4CCOCC4)cc(C(F)(F)F)n3)CC2)C1` [Example 159, {trans-3-(4-{[4-(morpholin-4-ylmethyl)-6-(trifluoromethyl)pyridin-2-yl]oxy}piperidin-1-yl)-1-[4-(7H-pyrrolo[2,3-d]pyrimidin-4-yl)-1H-pyrazol-1-yl]cyclobutyl}acetonitrile], the IC50 in assay [1] is < 10 nM; against JAK2 (a.a. 828-1132), 25 to 100 nM.

Turning to `N#CC[C@]1(n2cc(-c3ncnc4[nH]ccc34)cn2)C[C@H](N2CCC(Oc3cc(CN4CCC(F)(F)C4)cc(C(F)(F)F)n3)CC2)C1` [Example 160, {trans-3-(4-{[4-[(3,3-difluoropyrrolidin-1-yl)methyl]-6-(trifluoromethyl)pyridin-2-yl]oxy}piperidin-1-yl)-1-[4-(7H-pyrrolo[2,3-d]pyrimidin-4-yl)-1H-pyrazol-1-yl]cyclobutyl}acetonitrile], the IC50 in assay [1] is 10 to 25 nM; against JAK2 (a.a. 828-1132), > 100 nM.

Consider `N#CC[C@]1(n2cc(-c3ncnc4[nH]ccc34)cn2)C[C@H](N2CCC(Oc3cc(CN4CCC[C@H]4CO)cc(C(F)(F)F)n3)CC2)C1` [Example 161, {trans-3-(4-{[4-{[(2S)-2-(hydroxymethyl)pyrrolidin-1-yl]methyl}-6-(trifluoromethyl)pyridin-2-yl]oxy}piperidin-1-yl)-1-[4-(7H-pyrrolo[2,3-d]pyrimidin-4-yl)-1H-pyrazol-1-yl]cyclobutyl}acetonitrile], for which the IC50 in assay [1] is < 10 nM; against JAK2 (a.a. 828-1132), 25 to 100 nM.
